This is an account of results in ChEMBL document CHEMBL4699535, “Dolabellane and Clerodane Diterpenoids from the Twigs and Leaves of Casearia kurzii” (J Nat Prod, 2020).

Assay [1] deals with A549. As to the kind of experiment: Antiproliferative activity against human A549 cells assessed as reduction in cell viability after 24 to 72 hrs by MTT assay. Type of assay: functional, cell-based.
In assay [2] the target is NAD(P)H dehydrogenase [quinone] 1 (Mus musculus) (UniProt Q64669). Briefly: Induction of quinone reductase in mouse Hepa1c1c7 cells at 100 uM incubated for 24 hrs by MTT based assay. The class given is cell-based. The conditions noted are these: filed as activator. For orientation: Tetrazolium assays rely on reduction of a dye to a coloured formazan, in cell work by metabolically active cells.

Assay [3] relates to A549. As to the kind of experiment: Induction of cell cycle arrest in human A549 cells assessed as accumulation at S phase at 5 uM after 24 hrs by propodium iodide staining based flow cytometric analysis (reference value: 23.42 to 28.6%). The class given is functional. For orientation: Flow cytometry measures light scatter and fluorescence of single cells or particles in a stream.

In assay [4] the test system is A549. Briefly: Induction of cell cycle arrest in human A549 cells assessed as accumulation at G2/M phase at 5 uM after 24 hrs by propodium iodide staining based flow cytometric analysis (reference value: 10.66 to 10.98%). The class given is functional.
Assay [5] deals with A549. Briefly: Induction of cell cycle arrest in human A549 cells assessed as accumulation at G0/G1 phase at 10 uM after 24 hrs by propodium iodide staining based flow cytometric analysis (reference value: 60.74 to 65.6%). Type of assay: functional.
Assay [6] deals with A549. Briefly: Induction of cell cycle arrest in human A549 cells assessed as accumulation at S phase at 10 uM after 24 hrs by propodium iodide staining based flow cytometric analysis (reference value: 23.42 to 28.6%). The class given is functional.
The test system of assay [7] is A549. Briefly: Induction of cell cycle arrest in human A549 cells assessed as accumulation at G2/M phase at 10 uM after 24 hrs by propodium iodide staining based flow cytometric analysis (reference value: 10.66 to 10.98%). Type of assay: functional.
For assay [8], the system named is A549. As to the kind of experiment: Induction of cell cycle arrest in human A549 cells assessed as accumulation at G0/G1 phase at 20 uM after 24 hrs by propodium iodide staining based flow cytometric analysis (reference value: 60.74 to 65.6%). The class given is functional.
The subject of assay [9] is A549. As to the kind of experiment: Induction of cell cycle arrest in human A549 cells assessed as accumulation at S phase at 20 uM after 24 hrs by propodium iodide staining based flow cytometric analysis (reference value: 23.42 to 28.6%). The class given is functional.
Assay [10] relates to A549. As to the kind of experiment: Induction of cell cycle arrest in human A549 cells assessed as accumulation at G2/M phase at 20 uM after 24 hrs by propodium iodide staining based flow cytometric analysis (reference value: 10.66 to 10.98%). The class given is functional.
In assay [11] the test system is A549. Briefly: Induction of apoptosis in human A549 cells assessed as early apoptotic cells at 10 uM after 24 hrs by Annexin-V FITC/PI staining based flow cytometry analysis (reference value: 3.97 to 4.33%). Type of assay: functional.
The test system of assay [12] is A549. As to the kind of experiment: Induction of apoptosis in human A549 cells assessed as late apoptotic cells at 10 uM after 24 hrs by Annexin-V FITC/PI staining based flow cytometry analysis (reference value: 9.6%). The class given is functional.
The subject of assay [13] is A549. Briefly: Induction of apoptosis in human A549 cells assessed as early apoptotic cells at 20 uM after 24 hrs by Annexin-V FITC/PI staining based flow cytometry analysis (reference value: 3.97 to 4.33%). The class given is functional.
Assay [14] has as its system A549. As to the kind of experiment: Induction of apoptosis in human A549 cells assessed as late apoptotic cells at 20 uM after 24 hrs by Annexin-V FITC/PI staining based flow cytometry analysis (reference value: 9.6%). The class given is functional.
For assay [15], the target named is NAD(P)H dehydrogenase [quinone] 1 (Mus musculus) (UniProt Q64669). Briefly: Induction of quinone reductase in mouse Hepa1c1c7 cells at 50 uM incubated for 24 hrs by MTT based assay. Type of assay: cell-based. The conditions noted are these: filed as activator.
Assay [16] concerns A549. Briefly: Induction of cell cycle arrest in human A549 cells assessed as accumulation at G0/G1 phase at 5 uM after 24 hrs by propodium iodide staining based flow cytometric analysis (reference value: 60.74 to 65.6%). The class given is functional.
[17] abbreviates: Homo sapiens, A549, read-out: IC50.

NAD(P)H dehydrogenase [quinone] 1 (Mus musculus), sequence (Q64669 whole entry): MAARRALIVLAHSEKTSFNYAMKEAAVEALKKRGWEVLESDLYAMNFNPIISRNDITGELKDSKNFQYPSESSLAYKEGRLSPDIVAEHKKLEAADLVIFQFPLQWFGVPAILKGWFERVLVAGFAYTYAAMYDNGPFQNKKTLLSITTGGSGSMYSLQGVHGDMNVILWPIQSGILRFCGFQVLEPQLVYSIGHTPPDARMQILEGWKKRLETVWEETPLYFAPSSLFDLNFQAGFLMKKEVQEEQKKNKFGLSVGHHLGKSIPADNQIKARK

By IC50 is commonly meant the midpoint of a concentration-inhibition curve. Consider `C=C/C(C)=C/C[C@]1(C)[C@H](C)C[C@H](OC(=O)[C@@H](C)CC)[C@@]23C(=CC(=O)C[C@@H]12)[C@@H](OC(C)=O)O[C@H]3OC(C)=O`, for which the half-maximal inhibitory concentration (IC50) entry with A549 [1] (a549) was “Not Active”.
Take `C=C/C(C)=C/C[C@]1(C)[C@H](C)C[C@H](OC(=O)C(C)C)[C@@]23C(=C[C@H](O)C[C@@H]12)[C@@H](OC(C)=O)O[C@H]3OC(C)=O`: the IC50 entry in the assay on A549 [1] (a549) is “Not Active”.
In [2], `C/C1=C\C[C@@]2(C)CC[C@@](O)(C(C)C)[C@@H]2C/C=C(\C)[C@@H](O)CC1` displayed a fold change (FC) of 1.5. Moreover, the IC50 result in the assay with A549 [1] (a549) is on record as “Not Active”.
In the same order, the values of `C/C1=C\CC[C@@]2(C)O[C@@H]2C[C@H]2C(=O)C=C(C(C)C)[C@]2(O)CC1` are 1.9 and “Not Active”.
`C/C1=C/C[C@@H]2[C@@](C)(C/C=C(\C)CC[C@@H]1O)CC[C@@]2(O)C(C)C` showed a fold change (FC) in [2] of 1.5. For the same molecule, the IC50 result with A549 [1] (a549) was “Not Active”.
With `CC1=C2C[C@@]3(C)CC[C@@](O)(C(C)C)[C@@H]3CC[C@]2(C)[C@@H](O)CC1`, in the assay with A549 [1] (a549), the IC50 entry is “Not Active”.
As to `CC(=O)O[C@H]1O[C@@H](OC(C)=O)[C@]23C1=C[C@H](OC(=O)CC(C)C)C[C@H]2[C@](C)(C/C=C(\C)C=O)[C@H](C)C[C@@H]3O`, in the assay on A549 [1] (setting [17]), the IC50 was determined as 4.4 µM. In addition, the Activity with A549 [3] came to 27.45%; with A549 [4] it was 11.09%; with A549 [5], 56.99%; in the assay with A549 [6] it was 23.87%; with A549 [7], 19.14%; in the assay on A549 [8], 44.84%. The Activity in the assay on A549 [9] is on record as 34.59%; with A549 [10], 20.56%; with A549 [11] it was 6.04%; in the assay with A549 [12] it was 9.94%; in the assay on A549 [13], 13.7%; in the assay on A549 [14], 25.27%.
Molecule `C=C1CC[C@@H]2[C@@](C)(C/C=C(\C)CC[C@@H]1O)CC[C@@]2(O)C(C)C` yielded a fold change (FC) in [2] of 1.5. The half-maximal inhibitory concentration (IC50) entry in the assay on A549 [1] (a549) is “Not Active”.
In the case of `C=C/C(C)=C/C[C@]1(C)[C@H](C)C[C@H](OC(=O)[C@@H](C)CC)[C@@]23C(=C[C@H](O)C[C@@H]12)[C@@H](OC(C)=O)O[C@H]3OC(C)=O`, the IC50 result in the assay on A549 [1] (a549) is listed as “Not Active”.
For the molecule `CC1=CC[C@H](O)[C@@]2(C)CC[C@@H]3[C@](C)(CC[C@@]3(O)C(C)C)C[C@H]12`, in assay [15], the fold change (FC) is 1.4. Moreover, the IC50 entry in the assay on A549 [1] (a549) is recorded as “Not Active”.
On to `CC(=O)O[C@H]1O[C@@H](OC(C)=O)[C@]23C1=C[C@H](OC(=O)C(C)C)C[C@H]2[C@](C)(C/C=C(\C)C=O)[C@H](C)C[C@@H]3O`, for which the IC50 result in the assay with A549 [1] (a549) is “Not Active”.
As for `C=C/C(C)=C/C[C@]1(C)[C@H](C)C[C@H](OC(=O)CC(C)C)[C@@]23C(=C[C@H](O)C[C@@H]12)[C@@H](OC(C)=O)O[C@H]3OC(C)=O`, in the assay on A549 [1] (a549), the IC50 result is listed as “Not Active”.
As for `CC(=O)O[C@H]1O[C@@H](OC(C)=O)[C@]23C1=C[C@H](OC(=O)CC(C)C)C[C@H]2[C@](C)(C/C=C/C=O)[C@H](C)C[C@@H]3O`, the half-maximal inhibitory concentration (IC50) entry in the assay on A549 [1] (a549) is “Not Active”.
As for `C/C1=C\CC[C@]2(C)O[C@H]2C[C@@H]2C(=O)C=C(C(C)C)[C@@]2(O)CC1`, in [2], the fold change (FC) stood at 1.5. Moreover, in the assay on A549 [1] (a549), the 50% inhibitory concentration (IC50) result is on record as “Not Active”.
On to `C=CC(=C)[C@H](O)C[C@]1(C)[C@H](C)C[C@H](O)[C@@]23C(=C[C@H](OC(=O)CC(C)C)C[C@@H]12)[C@@H](OC(C)=O)O[C@H]3OC(C)=O`, for which, in the assay on A549 [1] (setting [17]), the IC50 was 4.6 µM. In addition, the Activity in the assay with A549 [16] is recorded as 64.17%; in the assay on A549 [3] it was 24.62%; in the assay with A549 [4] it was 11.21%; with A549 [5], 55.45%; with A549 [6] it was 31.33%; with A549 [7], 13.21%. Further, the Activity in the assay on A549 [8] was found to be 38.95%; with A549 [9] it was 61.05%; in the assay on A549 [10] it was 0%; in the assay on A549 [11], 5.44%; with A549 [12] it was 10.45%; with A549 [13], 10.41%. The Activity with A549 [14] is given as 35.73%.
